Data from paper PMC4457528, “Identification of Novel Small Molecule Inhibitors of Oncogenic RET Kinase” (PLoS ONE, 2015).
Like-named read-outs stand apart in the source and are kept apart here.

Key:
Assay in all cases: KinomeScan kinase panel, single concentration 10 µM
Format in all cases: binding
KinomeScan kinase panel [1] = target: T1, KinomeScan kinase panel (Homo sapiens, UniProt Q16513); settings: PKN2, 10 µM; read-out: score (%)
T1 construct: purchased DiscoveRx (KinomeScan)

KinomeScan kinase panel [2] = target: T2, KinomeScan kinase panel (Homo sapiens, UniProt O60674); settings: 10 µM
T2 construct: purchased DiscoveRx (KinomeScan)

KinomeScan kinase panel [3] = target: T3, KinomeScan kinase panel (Homo sapiens, UniProt P37173); settings: read-out: score (%)
T3 construct: purchased DiscoveRx (KinomeScan)

KinomeScan kinase panel [4] = target: T4, KinomeScan kinase panel (Homo sapiens, UniProt Q9NQU5); settings: PAK6, 10 µM; read-out: score (%)
T4 construct: purchased DiscoveRx (KinomeScan)

KinomeScan kinase panel [5] = target: T5, KinomeScan kinase panel (Homo sapiens, UniProt P54753); settings: EPHB3, 10 µM; read-out: score (%)
T5 construct: purchased DiscoveRx (KinomeScan)
T5 sequence (P54753 34-998): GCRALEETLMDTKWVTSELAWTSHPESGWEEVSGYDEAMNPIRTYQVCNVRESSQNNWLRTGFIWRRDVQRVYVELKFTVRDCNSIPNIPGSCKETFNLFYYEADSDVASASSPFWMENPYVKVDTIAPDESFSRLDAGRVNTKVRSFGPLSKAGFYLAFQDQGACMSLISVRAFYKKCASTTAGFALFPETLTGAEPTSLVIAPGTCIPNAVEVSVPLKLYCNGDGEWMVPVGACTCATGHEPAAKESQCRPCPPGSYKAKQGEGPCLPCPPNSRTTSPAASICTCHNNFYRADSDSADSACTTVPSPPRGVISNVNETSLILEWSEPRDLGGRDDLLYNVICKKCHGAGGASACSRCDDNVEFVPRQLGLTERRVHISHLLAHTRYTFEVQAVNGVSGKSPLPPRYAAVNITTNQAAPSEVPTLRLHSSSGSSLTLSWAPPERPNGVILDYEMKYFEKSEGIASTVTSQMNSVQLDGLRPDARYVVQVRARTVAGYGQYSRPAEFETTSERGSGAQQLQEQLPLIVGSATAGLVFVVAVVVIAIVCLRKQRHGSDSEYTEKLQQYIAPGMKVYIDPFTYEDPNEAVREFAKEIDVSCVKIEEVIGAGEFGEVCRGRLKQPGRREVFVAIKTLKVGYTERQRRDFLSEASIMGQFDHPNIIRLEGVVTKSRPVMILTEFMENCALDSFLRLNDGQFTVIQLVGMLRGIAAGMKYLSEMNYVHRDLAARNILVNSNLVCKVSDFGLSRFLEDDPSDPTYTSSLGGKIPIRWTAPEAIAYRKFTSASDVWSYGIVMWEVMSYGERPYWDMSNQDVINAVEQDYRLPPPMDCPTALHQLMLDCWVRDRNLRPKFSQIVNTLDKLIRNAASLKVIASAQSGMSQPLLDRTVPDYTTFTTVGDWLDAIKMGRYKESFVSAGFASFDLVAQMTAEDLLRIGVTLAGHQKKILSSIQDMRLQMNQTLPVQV

KinomeScan kinase panel [6] = target: T6, KinomeScan kinase panel (Homo sapiens, UniProt Q15746); settings: MYLK, 10 µM; read-out: score (%)
T6 construct: purchased DiscoveRx (KinomeScan)

KinomeScan kinase panel [7] = target: T7, KinomeScan kinase panel (Homo sapiens, UniProt Q13546); settings: read-out: score (%)
T7 construct: purchased DiscoveRx (KinomeScan)
T7 sequence (Q13546 1-671): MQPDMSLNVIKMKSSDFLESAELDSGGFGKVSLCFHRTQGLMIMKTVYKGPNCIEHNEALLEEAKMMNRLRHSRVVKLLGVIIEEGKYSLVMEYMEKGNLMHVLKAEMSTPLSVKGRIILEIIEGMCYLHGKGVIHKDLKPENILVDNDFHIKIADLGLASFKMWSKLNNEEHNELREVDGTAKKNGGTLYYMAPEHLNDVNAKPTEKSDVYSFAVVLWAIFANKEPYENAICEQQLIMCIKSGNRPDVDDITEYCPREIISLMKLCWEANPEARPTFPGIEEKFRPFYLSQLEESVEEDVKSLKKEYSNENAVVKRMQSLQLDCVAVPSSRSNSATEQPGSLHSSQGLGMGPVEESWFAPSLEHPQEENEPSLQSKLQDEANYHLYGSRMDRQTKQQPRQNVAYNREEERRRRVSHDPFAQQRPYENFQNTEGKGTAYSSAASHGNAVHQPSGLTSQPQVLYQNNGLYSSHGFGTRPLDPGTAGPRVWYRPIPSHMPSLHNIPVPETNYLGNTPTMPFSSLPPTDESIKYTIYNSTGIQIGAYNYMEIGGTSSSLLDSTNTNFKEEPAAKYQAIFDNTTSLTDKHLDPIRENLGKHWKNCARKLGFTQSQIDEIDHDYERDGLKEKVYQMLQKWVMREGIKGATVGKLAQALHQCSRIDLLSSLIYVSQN

KinomeScan kinase panel [8] = target: T8, KinomeScan kinase panel (Homo sapiens, UniProt Q59H18); settings: 10 µM, read-out: score (%)
T8 construct: purchased DiscoveRx (KinomeScan)
T8 sequence (Q59H18 1-835): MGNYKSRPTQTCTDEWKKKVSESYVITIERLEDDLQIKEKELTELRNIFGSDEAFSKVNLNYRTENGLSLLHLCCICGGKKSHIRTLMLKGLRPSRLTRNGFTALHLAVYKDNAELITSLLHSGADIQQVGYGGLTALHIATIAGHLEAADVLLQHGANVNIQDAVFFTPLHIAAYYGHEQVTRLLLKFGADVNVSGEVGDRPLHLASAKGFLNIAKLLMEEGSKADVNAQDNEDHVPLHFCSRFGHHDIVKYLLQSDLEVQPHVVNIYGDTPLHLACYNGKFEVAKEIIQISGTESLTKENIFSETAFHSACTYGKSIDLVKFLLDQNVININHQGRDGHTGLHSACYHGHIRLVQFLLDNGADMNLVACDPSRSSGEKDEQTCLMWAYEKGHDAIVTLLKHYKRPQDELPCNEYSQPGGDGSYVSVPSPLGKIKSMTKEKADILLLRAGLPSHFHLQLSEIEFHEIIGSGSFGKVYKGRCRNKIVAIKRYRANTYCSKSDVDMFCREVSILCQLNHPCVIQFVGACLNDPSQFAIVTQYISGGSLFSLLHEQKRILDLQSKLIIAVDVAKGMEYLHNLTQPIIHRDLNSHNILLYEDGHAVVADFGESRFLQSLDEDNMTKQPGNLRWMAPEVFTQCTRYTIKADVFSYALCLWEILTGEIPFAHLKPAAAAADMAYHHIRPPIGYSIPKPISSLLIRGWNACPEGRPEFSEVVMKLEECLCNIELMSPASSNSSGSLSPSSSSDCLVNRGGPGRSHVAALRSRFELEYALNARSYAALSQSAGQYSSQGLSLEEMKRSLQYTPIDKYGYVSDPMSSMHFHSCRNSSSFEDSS

KinomeScan kinase panel [9] = target: T9, KinomeScan kinase panel (Homo sapiens, UniProt O00238); settings: BMPR1B, 10 µM; read-out: score (%)
T9 construct: purchased DiscoveRx (KinomeScan)
T9 sequence (O00238 14-502): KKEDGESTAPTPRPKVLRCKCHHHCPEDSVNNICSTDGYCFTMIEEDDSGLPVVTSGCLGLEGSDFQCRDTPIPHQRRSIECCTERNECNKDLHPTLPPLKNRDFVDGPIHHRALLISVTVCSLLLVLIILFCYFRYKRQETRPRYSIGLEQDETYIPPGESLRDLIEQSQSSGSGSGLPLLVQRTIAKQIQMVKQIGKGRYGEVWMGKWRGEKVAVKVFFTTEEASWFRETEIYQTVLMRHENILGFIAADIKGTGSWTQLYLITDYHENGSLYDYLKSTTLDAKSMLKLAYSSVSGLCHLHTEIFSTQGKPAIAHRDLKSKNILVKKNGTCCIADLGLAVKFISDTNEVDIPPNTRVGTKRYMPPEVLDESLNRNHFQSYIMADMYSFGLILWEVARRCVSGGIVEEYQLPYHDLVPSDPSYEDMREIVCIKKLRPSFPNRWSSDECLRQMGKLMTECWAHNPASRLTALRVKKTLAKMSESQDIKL

T1 sequence (Q16513 whole entry): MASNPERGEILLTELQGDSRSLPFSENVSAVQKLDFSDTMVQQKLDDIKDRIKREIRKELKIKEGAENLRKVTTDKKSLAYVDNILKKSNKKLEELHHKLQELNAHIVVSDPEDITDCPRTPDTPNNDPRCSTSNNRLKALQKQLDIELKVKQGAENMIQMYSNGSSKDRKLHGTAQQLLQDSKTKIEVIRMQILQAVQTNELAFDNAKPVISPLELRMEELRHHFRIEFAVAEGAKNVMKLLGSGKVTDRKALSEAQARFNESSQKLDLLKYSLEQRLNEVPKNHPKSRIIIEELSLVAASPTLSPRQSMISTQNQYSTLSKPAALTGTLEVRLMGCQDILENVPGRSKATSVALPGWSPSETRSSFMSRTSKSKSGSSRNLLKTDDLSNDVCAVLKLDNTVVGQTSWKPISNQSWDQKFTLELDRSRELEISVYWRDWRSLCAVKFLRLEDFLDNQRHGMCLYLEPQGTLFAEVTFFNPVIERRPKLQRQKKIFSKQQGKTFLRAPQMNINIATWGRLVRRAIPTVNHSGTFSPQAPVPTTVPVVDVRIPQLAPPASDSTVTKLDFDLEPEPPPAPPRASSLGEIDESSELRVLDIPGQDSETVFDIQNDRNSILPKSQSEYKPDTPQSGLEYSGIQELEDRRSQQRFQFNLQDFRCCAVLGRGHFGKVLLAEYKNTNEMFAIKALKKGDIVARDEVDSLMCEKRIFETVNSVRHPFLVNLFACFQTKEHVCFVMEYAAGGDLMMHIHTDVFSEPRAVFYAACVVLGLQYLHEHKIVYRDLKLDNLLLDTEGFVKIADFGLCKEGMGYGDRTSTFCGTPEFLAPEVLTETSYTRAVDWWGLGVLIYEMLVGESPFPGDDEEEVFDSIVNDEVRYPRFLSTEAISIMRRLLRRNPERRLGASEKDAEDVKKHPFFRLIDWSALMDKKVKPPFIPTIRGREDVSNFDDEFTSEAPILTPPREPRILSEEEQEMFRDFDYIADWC
T4 sequence (Q9NQU5 whole entry): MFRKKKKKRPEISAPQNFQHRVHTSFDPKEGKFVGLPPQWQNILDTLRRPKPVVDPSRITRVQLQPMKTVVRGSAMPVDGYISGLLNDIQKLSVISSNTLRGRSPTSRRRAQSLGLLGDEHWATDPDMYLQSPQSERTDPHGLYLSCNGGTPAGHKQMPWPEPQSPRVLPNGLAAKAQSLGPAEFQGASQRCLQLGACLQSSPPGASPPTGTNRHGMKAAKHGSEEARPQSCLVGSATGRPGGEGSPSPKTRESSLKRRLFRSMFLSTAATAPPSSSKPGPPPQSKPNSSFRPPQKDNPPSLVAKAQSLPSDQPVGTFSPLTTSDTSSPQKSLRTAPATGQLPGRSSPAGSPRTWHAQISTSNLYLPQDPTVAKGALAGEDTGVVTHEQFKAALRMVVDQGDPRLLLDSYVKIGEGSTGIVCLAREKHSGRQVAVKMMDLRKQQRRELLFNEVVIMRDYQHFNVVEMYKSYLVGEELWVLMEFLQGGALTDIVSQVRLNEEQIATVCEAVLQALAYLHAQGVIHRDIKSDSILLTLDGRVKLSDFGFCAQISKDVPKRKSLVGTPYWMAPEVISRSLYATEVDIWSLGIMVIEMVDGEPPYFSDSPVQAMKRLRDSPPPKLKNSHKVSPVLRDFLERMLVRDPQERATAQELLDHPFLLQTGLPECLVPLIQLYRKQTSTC
T2 sequence (O60674 whole entry): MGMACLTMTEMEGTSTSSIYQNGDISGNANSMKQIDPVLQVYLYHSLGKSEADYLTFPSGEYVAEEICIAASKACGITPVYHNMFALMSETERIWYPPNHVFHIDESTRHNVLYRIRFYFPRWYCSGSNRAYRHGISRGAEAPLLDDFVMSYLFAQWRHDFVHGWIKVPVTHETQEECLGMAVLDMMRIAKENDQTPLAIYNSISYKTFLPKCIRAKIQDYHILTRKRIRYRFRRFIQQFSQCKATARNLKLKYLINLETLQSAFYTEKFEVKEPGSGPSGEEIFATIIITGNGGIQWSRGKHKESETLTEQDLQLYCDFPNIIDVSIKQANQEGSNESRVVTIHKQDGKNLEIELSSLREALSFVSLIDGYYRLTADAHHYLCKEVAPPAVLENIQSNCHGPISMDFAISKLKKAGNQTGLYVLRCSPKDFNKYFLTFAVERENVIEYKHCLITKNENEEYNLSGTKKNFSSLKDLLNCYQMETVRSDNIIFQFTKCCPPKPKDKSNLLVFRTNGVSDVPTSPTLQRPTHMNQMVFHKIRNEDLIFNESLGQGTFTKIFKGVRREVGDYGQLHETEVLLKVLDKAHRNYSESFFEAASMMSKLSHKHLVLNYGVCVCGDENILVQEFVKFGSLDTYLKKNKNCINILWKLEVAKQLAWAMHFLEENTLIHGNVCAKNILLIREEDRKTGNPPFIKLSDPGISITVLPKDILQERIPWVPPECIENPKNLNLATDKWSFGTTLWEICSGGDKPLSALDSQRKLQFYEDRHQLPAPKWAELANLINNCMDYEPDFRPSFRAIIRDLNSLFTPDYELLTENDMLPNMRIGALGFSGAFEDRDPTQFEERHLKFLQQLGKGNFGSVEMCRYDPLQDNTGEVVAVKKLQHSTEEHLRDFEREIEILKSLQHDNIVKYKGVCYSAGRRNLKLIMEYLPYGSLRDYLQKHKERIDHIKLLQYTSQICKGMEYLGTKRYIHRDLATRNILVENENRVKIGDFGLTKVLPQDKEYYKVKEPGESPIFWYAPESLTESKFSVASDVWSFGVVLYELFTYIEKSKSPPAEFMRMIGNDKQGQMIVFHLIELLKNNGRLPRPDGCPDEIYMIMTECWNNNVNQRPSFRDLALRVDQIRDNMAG
T3 sequence (P37173 23-567): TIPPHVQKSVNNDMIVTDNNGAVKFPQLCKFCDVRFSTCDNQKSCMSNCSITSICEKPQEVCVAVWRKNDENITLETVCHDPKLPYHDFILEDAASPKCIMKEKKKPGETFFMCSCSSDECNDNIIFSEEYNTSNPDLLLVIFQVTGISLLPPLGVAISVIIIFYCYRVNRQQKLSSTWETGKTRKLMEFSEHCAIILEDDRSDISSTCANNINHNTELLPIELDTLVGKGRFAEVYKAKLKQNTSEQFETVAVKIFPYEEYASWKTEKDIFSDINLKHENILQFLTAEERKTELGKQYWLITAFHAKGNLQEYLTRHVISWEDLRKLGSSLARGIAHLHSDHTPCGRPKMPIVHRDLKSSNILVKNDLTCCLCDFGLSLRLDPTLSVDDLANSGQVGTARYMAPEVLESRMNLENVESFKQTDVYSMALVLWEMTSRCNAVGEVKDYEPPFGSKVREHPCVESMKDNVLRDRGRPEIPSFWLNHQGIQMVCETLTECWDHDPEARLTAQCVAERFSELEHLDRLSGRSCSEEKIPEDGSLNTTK

score (%) (KinomeScan kinase panel [2]; JAK2(Kin.Dom.2)) | remaining binding at 10 µM (KinomeScan kinase panel [3]; TGFBR2, 10 µM) [%] | remaining binding at 10 µM (KinomeScan kinase panel [8]; TNNI3K) [%] | Structure (SMILES) | remaining binding at 10 µM (KinomeScan kinase panel [1]) [%] | score (%) (KinomeScan kinase panel [2]; JAK2(JH1domain-catalytic)) | remaining binding at 10 µM (KinomeScan kinase panel [3]; kinase TGFBR2, 10 µM) [%] | remaining binding at 10 µM (KinomeScan kinase panel [4]) [%] | remaining binding at 10 µM (KinomeScan kinase panel [5]) [%] | remaining binding at 10 µM (KinomeScan kinase panel [6]) [%] | remaining binding at 10 µM (KinomeScan kinase panel [7]; RIPK1, 10 µM) [%] | remaining binding at 10 µM (KinomeScan kinase panel [8]; kinase TNNI3K) [%] | remaining binding at 10 µM (KinomeScan kinase panel [9]) [%] | remaining binding at 10 µM (KinomeScan kinase panel [7]; kinase RIPK1, 10 µM) [%]
 |  |  | CCN1CCN(Cc2ccc(NC(=O)c3ccc(C)c(NC(=O)c4cncc(-c5cccs5)c4)c3)cc2C(F)(F)F)CC1 [ALW-II-41-27] | > 30 | 11 | 4.6 | > 30 | 0.3 | > 30 | 0.45 | 3.8 | > 30 | 
12 | 2.8 | 0.9 | CCN1CCN(Cc2ccc(NC(=O)c3ccc(C)c(/C=C/c4cnc5[nH]ccc5c4Cl)c3)cc2C(F)(F)F)CC1 [HG-6-63-01, (E)-3-(2-(4-chloro-1H-pyrrolo[2,3-b]pyridin-5-yl)vinyl)-N-(4-((4-ethylpiperazin-1-yl)methyl)-3-(trifluoromethyl)phenyl)-4-methylbenzamide] | 23 |  |  | > 30 | 11 | > 30 | 0.05 |  | > 30 | 
 |  |  | CCN1CCN(Cc2ccc(NC(=O)c3ccc(C)c(C#Cc4cccnc4)c3)cc2C(F)(F)F)CC1 [XMD15-44] | 36 | 3 | 1.3 | 100 | 0.25 | > 30 |  | 0 | > 30 | 0.05
